Experimental data taken from PubChem BioAssay AID1963981 (Molecular Pharmacology Branch, DTP, NCI, 2024).

Tested on: 354836-022-R-J1-PDC multicell spheroid viability
Assay: Anticancer human tumor 354836-022-R-J1-PDC patient-derived head and neck squamous cell carcinoma cell line growth inhibition [PI3K]
Conditions: for IC50: curve of first compound; for viability, T/C: stronger effect = lower value
Summary of the method: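 Multi-cell spheroids combine tumor cells with HUVEC and human MSCs, treated with targeted agents alone or with inavolisib, alpelisib, duvelisib or copanlisib. Concentrations fall in half-log steps from at or near clinical Cmax, or from 10 microM where Cmax is unknown; viability read-out.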

[1] = second compound 0.00316 µM, first compound 0.0316 µM
[2] = second compound 0.00316 µM, first compound 0.1 µM
[3] = second compound 0.00316 µM, first compound 0.316 µM
[4] = second compound 0.00316 µM, first compound 1 µM
[5] = second compound 0.00316 µM, first compound 3.16 µM
[6] = second compound 0.00316 µM, first compound 10 µM
[7] = second compound 0.01 µM, first compound 0.0316 µM
[8] = second compound 0.01 µM, first compound 0.1 µM
[9] = second compound 0.01 µM, first compound 0.316 µM
[10] = second compound 0.01 µM, first compound 1 µM
[11] = second compound 0.01 µM, first compound 3.16 µM
[12] = second compound 0.01 µM, first compound 10 µM
[13] = second compound 0.0316 µM, first compound 0.0316 µM
[14] = second compound 0.0316 µM, first compound 0.1 µM
[15] = second compound 0.0316 µM, first compound 0.316 µM
[16] = second compound 0.0316 µM, first compound 1 µM
[17] = second compound 0.0316 µM, first compound 3.16 µM
[18] = second compound 0.0316 µM, first compound 10 µM
[19] = second compound 0.1 µM, first compound 0.0316 µM
[20] = second compound 0.1 µM, first compound 0.1 µM
[21] = second compound 0.1 µM, first compound 0.316 µM
[22] = second compound 0.1 µM, first compound 1 µM
[23] = second compound 0.1 µM, first compound 3.16 µM
[24] = second compound 0.1 µM, first compound 10 µM
[25] = second compound 0.316 µM, first compound 0.0316 µM
[26] = second compound 0.316 µM, first compound 0.1 µM
[27] = second compound 0.316 µM, first compound 0.316 µM
[28] = second compound 0.316 µM, first compound 1 µM
[29] = second compound 0.316 µM, first compound 3.16 µM
[30] = second compound 0.316 µM, first compound 10 µM
[31] = second compound 1 µM, first compound 0.0316 µM
[32] = second compound 1 µM, first compound 0.1 µM
[33] = second compound 1 µM, first compound 0.316 µM
[34] = second compound 1 µM, first compound 1 µM
[35] = second compound 1 µM, first compound 3.16 µM
[36] = second compound 1 µM, first compound 10 µM
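Note: spheroids exposed to agents for seven days before the viability read.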

## CC1(C)CCC(CN2CCN(c3ccc(C(=O)NS(=O)(=O)c4ccc(NCC5CCOCC5)c([N+](=O)[O-])c4)c(Oc4cnc5[nH]ccc5c4)c3)CC2)=C(c2ccc(Cl)cc2)C1 + COc1c(OCCCN2CCOCC2)ccc2c3n(c(=NC(=O)c4cnc(N)nc4)nc12)CCN3
Second compound 0.00316 µM
  IC50: 4.46 µM
Second compound 0.01 µM
  IC50: 3.75 µM
Second compound 0.0316 µM
  IC50: 3.73 µM
Second compound 0.1 µM
  IC50: 1.75 µM
Second compound 0.316 µM
  IC50: < 0.0316 µM
Second compound 1 µM
  IC50: < 0.0316 µM
[1]
  viability, T/C: 85.4%
[2]
  viability, T/C: 97.5%
[3]
  viability, T/C: 97%
[4]
  viability, T/C: 96.5%
[5]
  viability, T/C: 69.2%
[6]
  viability, T/C: 5.16%
[7]
  viability, T/C: 92.6%
[8]
  viability, T/C: 87.3%
[9]
  viability, T/C: 95%
[10]
  viability, T/C: 95.5%
[11]
  viability, T/C: 58%
[12]
  viability, T/C: 4.01%
[13]
  viability, T/C: 69%
[14]
  viability, T/C: 76.2%
[15]
  viability, T/C: 78.8%
[16]
  viability, T/C: 79%
[17]
  viability, T/C: 58%
[18]
  viability, T/C: 3.73%
[19]
  viability, T/C: 58.9%
[20]
  viability, T/C: 50.6%
[21]
  viability, T/C: 49%
[22]
  viability, T/C: 61.7%
[23]
  viability, T/C: 44.6%
[24]
  viability, T/C: 2.56%
[25]
  viability, T/C: 12.8%
[26]
  viability, T/C: 12.5%
[27]
  viability, T/C: 13.7%
[28]
  viability, T/C: 14.3%
[29]
  viability, T/C: 7.93%
[30]
  viability, T/C: 1.71%
[31]
  viability, T/C: 1.99%
[32]
  viability, T/C: 1.2%
[33]
  viability, T/C: 1.79%
[34]
  viability, T/C: 1.5%
[35]
  viability, T/C: 1.66%
[36]
  viability, T/C: 0.72%

## C[C@@H](NC(=O)c1ncnc(N)c1Cl)c1ncc(C(=O)Nc2cc(C(F)(F)F)c(Cl)cn2)s1 + COc1c(OCCCN2CCOCC2)ccc2c3n(c(=NC(=O)c4cnc(N)nc4)nc12)CCN3
Second compound 0.00316 µM
  IC50: > 10 µM
Second compound 0.01 µM
  IC50: > 10 µM
Second compound 0.0316 µM
  IC50: > 10 µM
Second compound 0.1 µM
  IC50: > 10 µM
Second compound 0.316 µM
  IC50: < 0.0316 µM
Second compound 1 µM
  IC50: < 0.0316 µM
[1]
  viability, T/C: 91.8%
[2]
  viability, T/C: 112%
[3]
  viability, T/C: 96.9%
[4]
  viability, T/C: 109%
[5]
  viability, T/C: 98.5%
[6]
  viability, T/C: 97%
[7]
  viability, T/C: 105%
[8]
  viability, T/C: 101%
[9]
  viability, T/C: 96.5%
[10]
  viability, T/C: 119%
[11]
  viability, T/C: 102%
[12]
  viability, T/C: 78.1%
[13]
  viability, T/C: 76%
[14]
  viability, T/C: 81.8%
[15]
  viability, T/C: 86.5%
[16]
  viability, T/C: 86.9%
[17]
  viability, T/C: 84.2%
[18]
  viability, T/C: 71.5%
[19]
  viability, T/C: 58.2%
[20]
  viability, T/C: 43.7%
[21]
  viability, T/C: 55.6%
[22]
  viability, T/C: 55%
[23]
  viability, T/C: 55.1%
[24]
  viability, T/C: 47.9%
[25]
  viability, T/C: 11.2%
[26]
  viability, T/C: 14.4%
[27]
  viability, T/C: 13.4%
[28]
  viability, T/C: 18%
[29]
  viability, T/C: 24.4%
[30]
  viability, T/C: 9.94%
[31]
  viability, T/C: 2.2%
[32]
  viability, T/C: 1.73%
[33]
  viability, T/C: 1.92%
[34]
  viability, T/C: 1.84%
[35]
  viability, T/C: 2.33%
[36]
  viability, T/C: 1.65%

## Cn1ncnc1[C@H]1c2n[nH]c(=O)c3cc(F)cc(c23)N[C@@H]1c1ccc(F)cc1 + COc1c(OCCCN2CCOCC2)ccc2c3n(c(=NC(=O)c4cnc(N)nc4)nc12)CCN3
Second compound 0.00316 µM
  IC50: > 0.1 µM
Second compound 0.01 µM
  IC50: > 0.1 µM
Second compound 0.0316 µM
  IC50: > 0.1 µM
Second compound 0.1 µM
  IC50: 0.0149 µM
Second compound 0.316 µM
  IC50: < 0.000316 µM
Second compound 1 µM
  IC50: < 0.000316 µM
Second compound 0.00316 µM, first compound 0.000316 µM
  viability, T/C: 98.6%
Second compound 0.00316 µM, first compound 0.001 µM
  viability, T/C: 102%
Second compound 0.00316 µM, first compound 0.00316 µM
  viability, T/C: 95.6%
Second compound 0.00316 µM, first compound 0.01 µM
  viability, T/C: 101%
[1]
  viability, T/C: 98.2%
[2]
  viability, T/C: 88.5%
Second compound 0.01 µM, first compound 0.000316 µM
  viability, T/C: 93.8%
Second compound 0.01 µM, first compound 0.001 µM
  viability, T/C: 103%
Second compound 0.01 µM, first compound 0.00316 µM
  viability, T/C: 90.5%
Second compound 0.01 µM, first compound 0.01 µM
  viability, T/C: 93.1%
[7]
  viability, T/C: 95.3%
[8]
  viability, T/C: 76.2%
Second compound 0.0316 µM, first compound 0.000316 µM
  viability, T/C: 76%
Second compound 0.0316 µM, first compound 0.001 µM
  viability, T/C: 77.7%
Second compound 0.0316 µM, first compound 0.00316 µM
  viability, T/C: 88%
Second compound 0.0316 µM, first compound 0.01 µM
  viability, T/C: 83.4%
[13]
  viability, T/C: 83.1%
[14]
  viability, T/C: 69.8%
Second compound 0.1 µM, first compound 0.000316 µM
  viability, T/C: 50%
Second compound 0.1 µM, first compound 0.001 µM
  viability, T/C: 50.7%
Second compound 0.1 µM, first compound 0.00316 µM
  viability, T/C: 52%
Second compound 0.1 µM, first compound 0.01 µM
  viability, T/C: 57.5%
[19]
  viability, T/C: 57.8%
[20]
  viability, T/C: 37%
Second compound 0.316 µM, first compound 0.000316 µM
  viability, T/C: 15.2%
Second compound 0.316 µM, first compound 0.001 µM
  viability, T/C: 16.3%
Second compound 0.316 µM, first compound 0.00316 µM
  viability, T/C: 14.5%
Second compound 0.316 µM, first compound 0.01 µM
  viability, T/C: 13.9%
[25]
  viability, T/C: 13.5%
[26]
  viability, T/C: 7.08%
Second compound 1 µM, first compound 0.000316 µM
  viability, T/C: 2.45%
Second compound 1 µM, first compound 0.001 µM
  viability, T/C: 1.53%
Second compound 1 µM, first compound 0.00316 µM
  viability, T/C: 1.71%
Second compound 1 µM, first compound 0.01 µM
  viability, T/C: 2.18%
[31]
  viability, T/C: 2.36%
[32]
  viability, T/C: 1.28%
